Values of other authors, collected in article PMC9516332 (Frontiers in Oncology, 2022).
Read-outs that look alike come from different tables or passages of the source.

What was measured:
Details in all cases: cited from earlier work
[1] = target: panel of 255 wild-type kinases (Homo sapiens, UniProt P50613)
[2] = target: panel of 255 wild-type kinases (Homo sapiens, UniProt Q9UK32)
[3] = target: panel of 255 wild-type kinases (Homo sapiens, UniProt P53350)
[4] = target: panel of 255 wild-type kinases (Homo sapiens, UniProt P22694)
[5] = target: panel of 255 wild-type kinases (Homo sapiens, UniProt Q9H1R3)
[6] = target: T1, panel of 255 wild-type kinases (Homo sapiens, UniProt Q9NZJ5)
T1 sequence (Q9NZJ5 30-1116): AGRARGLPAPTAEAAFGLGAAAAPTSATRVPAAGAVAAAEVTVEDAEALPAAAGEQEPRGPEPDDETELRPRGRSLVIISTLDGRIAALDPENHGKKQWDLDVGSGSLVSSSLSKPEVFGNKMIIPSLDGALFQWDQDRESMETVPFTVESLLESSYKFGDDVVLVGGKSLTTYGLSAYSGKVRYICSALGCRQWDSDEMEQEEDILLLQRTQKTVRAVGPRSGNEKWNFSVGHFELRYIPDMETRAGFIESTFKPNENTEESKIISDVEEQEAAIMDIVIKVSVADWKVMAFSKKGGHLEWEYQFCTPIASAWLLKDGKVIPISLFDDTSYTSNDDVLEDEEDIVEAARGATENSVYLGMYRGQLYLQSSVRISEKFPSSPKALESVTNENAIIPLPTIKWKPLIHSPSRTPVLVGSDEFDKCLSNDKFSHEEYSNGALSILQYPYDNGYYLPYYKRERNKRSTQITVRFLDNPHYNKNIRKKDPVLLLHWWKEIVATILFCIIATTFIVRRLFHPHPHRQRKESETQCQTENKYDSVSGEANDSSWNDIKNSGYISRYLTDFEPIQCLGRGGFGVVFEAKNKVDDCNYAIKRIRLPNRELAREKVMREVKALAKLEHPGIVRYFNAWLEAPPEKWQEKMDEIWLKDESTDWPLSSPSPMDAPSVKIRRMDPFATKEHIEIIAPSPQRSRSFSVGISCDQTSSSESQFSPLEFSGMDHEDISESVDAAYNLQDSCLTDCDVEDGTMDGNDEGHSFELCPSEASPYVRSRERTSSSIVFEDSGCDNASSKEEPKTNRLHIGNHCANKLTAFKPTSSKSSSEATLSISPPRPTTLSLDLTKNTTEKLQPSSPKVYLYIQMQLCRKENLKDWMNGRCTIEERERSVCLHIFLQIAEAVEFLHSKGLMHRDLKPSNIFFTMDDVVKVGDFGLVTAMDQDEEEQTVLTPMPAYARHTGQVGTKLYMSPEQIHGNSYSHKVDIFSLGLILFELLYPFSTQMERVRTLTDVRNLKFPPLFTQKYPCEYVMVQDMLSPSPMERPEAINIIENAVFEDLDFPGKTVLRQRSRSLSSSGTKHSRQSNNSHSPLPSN

[7] = target: panel of 255 wild-type kinases (Homo sapiens, UniProt Q8IU85)
[8] = target: panel of 255 wild-type kinases (Homo sapiens, UniProt Q9Y463)
[9] = target: panel of 255 wild-type kinases (Homo sapiens, UniProt P12931)
[10] = CDK7/CycH/MAT1 kinase assay, 1 µmol/L single concentration, ref DOI: 10.1158/1535-7163.MCT-18-0877
[11] = kinase RSK4, 1 µmol/L single concentration, ref DOI: 10.1158/1535-7163.MCT-18-0877
[12] = kinase PLK1, 1 µmol/L single concentration, ref DOI: 10.1158/1535-7163.MCT-18-0877
[13] = kinase PKACβ, 1 µmol/L single concentration, ref DOI: 10.1158/1535-7163.MCT-18-0877
[14] = kinase skMLCK, 1 µmol/L single concentration, ref DOI: 10.1158/1535-7163.MCT-18-0877
[15] = kinase PEK, 1 µmol/L single concentration, ref DOI: 10.1158/1535-7163.MCT-18-0877
[16] = CaMK1δ kinase assay, 1 µmol/L single concentration, ref DOI: 10.1158/1535-7163.MCT-18-0877
[17] = kinase DYRK1B, 1 µmol/L single concentration, ref DOI: 10.1158/1535-7163.MCT-18-0877
[18] = kinase SRC, 1 µmol/L single concentration, ref DOI: 10.1158/1535-7163.MCT-18-0877
[19] = CDK7/CycH/MAT1 kinase assay, 1 µmol/L single concentration, ref DOI: 10.1371/journal.pone.0092146
[20] = kinase RSK4, 1 µmol/L single concentration, ref DOI: 10.1371/journal.pone.0092146
[21] = kinase PLK1, 1 µmol/L single concentration, ref DOI: 10.1371/journal.pone.0092146
[22] = kinase PKACβ, 1 µmol/L single concentration, ref DOI: 10.1371/journal.pone.0092146
[23] = kinase PEK, 1 µmol/L single concentration, ref DOI: 10.1371/journal.pone.0092146
[24] = CaMK1δ kinase assay, 1 µmol/L single concentration, ref DOI: 10.1371/journal.pone.0092146
[25] = kinase DYRK1B, 1 µmol/L single concentration, ref DOI: 10.1371/journal.pone.0092146
[26] = kinase skMLCK, 1 µmol/L single concentration, ref DOI: 10.1371/journal.pone.0092146
[27] = kinase SRC, 1 µmol/L single concentration, ref DOI: 10.1371/journal.pone.0092146

SMILES	%-inhibition CDK7/CycH/MAT1 [1, 10] [%]	%-inhibition at 1 µmol/L, RSK4 [2, 11] [%]	%-inhibition at 1 µmol/L, PLK1 [3, 12] [%]	%-inhibition at 1 µmol/L, PKACβ [4, 13] [%]	%-inhibition at 1 µmol/L, skMLCK [5, 14] [%]	%-inhibition at 1 µmol/L, PEK [6, 15] [%]	%-inhibition CaMK1δ [7, 16] [%]	%-inhibition at 1 µmol/L, DYRK1B [8, 17] [%]	%-inhibition at 1 µmol/L, SRC [9, 18] [%]	%-inhibition at 1 µmol/L, RSK4 [2, 20] [%]	%-inhibition at 1 µmol/L, PLK1 [3, 21] [%]	%-inhibition at 1 µmol/L, DYRK1B [8, 25] [%]	other results
CC#CC(=O)N1CCC[C@H]1c1nc(-c2ccc(C(=O)Nc3ccccn3)cc2)c2c(N)nccn12 [acalabrutinib]	5	4.21	-2.57	-13	-17	8	-5	-19	10	–	–	–	–
CCc1cc2c(cc1N1CCC(N3CCOCC3)CC1)C(C)(C)c1[nH]c3cc(C#N)ccc3c1C2=O [alectinib]	-12	19	-1.76	2	-11	9	-3.42	2	10	–	–	–	–
COc1cc(N2CCC(N3CCN(C)CC3)CC2)ccc1Nc1ncc(Cl)c(Nc2ccccc2P(C)(C)=O)n1 [brigatinib]	–	–	–	–	–	–	–	–	–	–	–	–	%-inhibition CDK7/CycH/MAT1 [1]: 55%; %-inhibition at 1 µmol/L, RSK4 [2]: 98%; %-inhibition at 1 µmol/L, PLK1 [3]: 49%; %-inhibition at 1 µmol/L, PKACβ [4]: 9%; %-inhibition at 1 µmol/L, skMLCK [5]: -6%; %-inhibition at 1 µmol/L, PEK [6]: 18%; %-inhibition CaMK1δ [7]: 62%; %-inhibition at 1 µmol/L, DYRK1B [8]: 41%; %-inhibition at 1 µmol/L, SRC [9]: 65%
Cc1cc(Nc2ncc(Cl)c(Nc3ccccc3S(=O)(=O)C(C)C)n2)c(OC(C)C)cc1C1CCNCC1 [ceritinib]	45	83	–	-11	-9	9.5	48	11	9	–	–	–	–
O=C(c1ccc(F)c(F)c1Nc1ccc(I)cc1F)N1CC(O)([C@@H]2CCCCN2)C1 [cobimetinib]	6	5.52	-1.08	-6.51	-10	5	1	2	6.45	–	–	–	–
C[C@@H](Oc1cc(-c2cnn(C3CCNCC3)c2)cnc1N)c1c(Cl)ccc(F)c1Cl [crizotinib]	–	–	–	–	–	–	–	–	–	-1.58	-3	-3	%-inhibition CDK7/CycH/MAT1 [1, 19]: 58%; %-inhibition at 1 µmol/L, PKACβ [4, 22]: -2.3%; %-inhibition at 1 µmol/L, PEK [6, 23]: 1.1%; %-inhibition CaMK1δ [7, 24]: -4%
CC(C)(C)c1nc(-c2cccc(NS(=O)(=O)c3c(F)cccc3F)c2F)c(-c2ccnc(N)n2)s1 [dabrafenib]	–	–	–	–	–	–	–	–	–	2.2	-9	29	%-inhibition at 1 µmol/L, skMLCK [5, 26]: 0.52%; %-inhibition at 1 µmol/L, SRC [9, 27]: 68%
C=CC(=O)N1CCC[C@@H](n2nc(-c3ccc(Oc4ccccc4)cc3)c3c(N)ncnc32)C1 [ibrutinib]	5	5.52	-2.28	-9	-17	7.47	5	2	–	–	–	–	–
CO[C@@H]1[C@H](N(C)C(=O)c2ccccc2)C[C@H]2O[C@]1(C)n1c3ccccc3c3c4c(c5c6ccccc6n2c5c31)C(=O)NC4 [midostaurin]	10	–	6	91	0.93	11	–	–	79	–	–	–	–
C=CC(=O)Nc1cc(Nc2nccc(-c3cn(C)c4ccccc34)n2)c(OC)cc1N(C)CCN(C)C [osimertinib]	8.57	38	-0.476	-6	-4	7	9	5	9	–	–	–	–
CC(=O)Nc1cccc(-n2c(=O)n(C3CC3)c(=O)c3c(Nc4ccc(I)cc4F)n(C)c(=O)c(C)c32)c1 [trametinib]	–	–	–	–	–	–	–	–	–	0.208	-9	3.34	%-inhibition CDK7/CycH/MAT1 [1, 19]: -6%; %-inhibition at 1 µmol/L, PKACβ [4, 22]: -5%; %-inhibition at 1 µmol/L, skMLCK [5, 26]: -3.34%; %-inhibition at 1 µmol/L, PEK [6, 23]: 1.13%; %-inhibition CaMK1δ [7, 24]: -3.3%; %-inhibition at 1 µmol/L, SRC [9, 27]: -5.4%
CCCS(=O)(=O)Nc1ccc(F)c(C(=O)c2c[nH]c3ncc(-c4ccc(Cl)cc4)cc23)c1F [vemurafenib]	–	–	–	–	–	–	–	–	–	-3	-4	-1.74	%-inhibition CDK7/CycH/MAT1 [1, 19]: 0.137%; %-inhibition at 1 µmol/L, PKACβ [4, 22]: 2.66%; %-inhibition at 1 µmol/L, skMLCK [5, 26]: 53%; %-inhibition at 1 µmol/L, PEK [6, 23]: 11%; %-inhibition CaMK1δ [7, 24]: -7%; %-inhibition at 1 µmol/L, SRC [9, 27]: 52%
